Measured values: patent US5744487A, “Prolineamide derivatives” (Mitsubishi Chemical Corporation, priority 1994, dated 1998)
pIC50: −log10 of the molar value.

What was measured:
[1] = J. Med. Chem., 33, 1729 (1990); cited from earlier work
bovine thrombin [2] = molecular target: T1, bovine thrombin (Bos taurus, UniProt P00735); test: Antithrombin activity: coagulation inhibition of rat plasma; type: biochemical
T1 construct: purchased Mochida Co., Ltd
Protocol: (ii) The measuring method for coagulation inhibition of rat plasma The compound of the present invention is dissolved in water or saline to form a solution of a total volume of 0.1 ml. To the solution, 0.1 ml of rat plasma is added and the mixture is incubated at 37° C. for 30 seconds. Then, 0.1 ml of bovine thrombin (8 units/ml, Mochida Co., Ltd.) is added and the coagulation time is measured at 37° C. The concentration of the inhibitor (i.e., the compound of the present invention) which doubles the coagulation time that obtained in the absence of the inhibitor was determined as I50 (μm).

bovine thrombin [3] = molecular target: T1, bovine thrombin; test: Antithrombin activity: hydrolysis inhibition of synthetic substrate (S-2238); type: biochemical
Protocol: Determination of antithrombin activity
(i) The measuring method for hydrolysis inhibition of synthetic substrate (S-2238)
S-2238 (manufactured by Kabi Co.) is dissolved in a Tris hydrochloric acid buffer solution (pH: 8.3) to prepare a S-2238-0.4M Tris hydrochloric acid solution having a concentration of 80 μm. To 175 μl of the solution, an aqueous solution of a compound of the present invention (515 μl) is added. After incubating at 37° C. for one minute, 10 μl of a bovine thrombin solution (4.4 units/ml, manufactured by Mochida Co., Ltd.) is added. A hydrolysis reaction rate of the substrate is determined by measuring a change in absorbance of 405 nm at 37° C.

bovine trypsin = molecular target: T2, bovine trypsin (Bos taurus, UniProt P00760); test: Antitrypsin activity: hydrolysis inhibition of synthetic substrate (S-2222); type: biochemical; details: S-2222 substrate, pH 8.3, 37° C., absorbance 405 nm, read-out: Antitrypsin activity I50
T2 construct: purchased Sigma Co
T2 sequence (P00760 24-246): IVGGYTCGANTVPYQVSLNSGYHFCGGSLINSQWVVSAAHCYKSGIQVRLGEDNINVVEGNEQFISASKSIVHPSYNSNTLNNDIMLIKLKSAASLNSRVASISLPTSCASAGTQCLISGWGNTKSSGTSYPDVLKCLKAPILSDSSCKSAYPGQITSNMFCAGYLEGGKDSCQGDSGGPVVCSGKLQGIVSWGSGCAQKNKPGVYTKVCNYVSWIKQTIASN
Protocol: Determination of Antitrypsin activity
(i) The measuring method for hydrolysis inhibition of synthetic substrate (S-2222)
S-2222 (manufactured by Kabi Co.) is dissolved in a Tris hydrochloric acid (pH: 8.3) to prepare a S-2222-0.4M Tris hydrochloric acid solution having a concentration of 400 μm. To the solution (175 μl), 515 μl of a solution of a compound of the present invention is added. After incubating at 37° C. for one minute, 10 μl of a bovine trypsin solution (1 to 2 mg/ml, manufactured by Sigma Co.) is added. A hydrolysis reaction rate of the substrate is determined by measuring a change in absorbance of 405 nm at 37° C.

| pIC50 (bovine thrombin [2]) | pIC50 (bovine thrombin [3]) | pIC50 (bovine trypsin) | SMILES | stability in the living body [1] |
| --- | --- | --- | --- | --- |
| 7.34 | – | – | CS(=O)(=O)N[C@@H](C(=O)N1CCC[C@H]1C(=O)NCc1ccc(C(=N)N)cc1)C1CCCCC1 [compound 1] | – |
| 7.52 | – | – | CC(C)(C)C[C@@H](NS(C)(=O)=O)C(=O)N1CCC[C@H]1C(=O)NCc1ccc(C(=N)N)cc1 [compound 2] | – |
| 7.68 | 8.12 | 7.40 | CS(=O)(=O)N[C@H](Cc1ccccc1)C(=O)N1CCC[C@H]1C(=O)NCc1ccc(C(=N)N)cc1 [compound 4] | – |
| 7.32 | – | – | CSCC[C@@H](NS(C)(=O)=O)C(=O)N1CCC[C@H]1C(=O)NCc1ccc(C(=N)N)cc1 [compound 5] | – |
| 7.25 | – | – | N=C(N)c1ccc(CNC(=O)[C@@H]2CCCN2C(=O)[C@@H](Cc2ccccc2)NC=O)cc1 [compound 6] | – |
| 7.52 | – | – | CCCC[C@@H](NS(C)(=O)=O)C(=O)N1CCC[C@H]1C(=O)NCc1ccc(C(=N)N)cc1 [compound 7] | – |
| 7.42 | 7.96 | 5.66 | CCOC(=O)N[C@H](CC(C)(C)C)C(=O)N1CCC[C@H]1C(=O)NC[C@H]1CC[C@H](C(=N)N)CC1 [compound 15] | – |
| 7.51 | – | – | CC(C)C[C@@H](NS(C)(=O)=O)C(=O)N1CCC[C@H]1C(=O)NC[C@H]1CC[C@H](C(=N)N)CC1 [compound 19] | – |
| 7.55 | – | – | CS(=O)(=O)N[C@H](CC1CCCCC1)C(=O)N1CCC[C@H]1C(=O)NC[C@H]1CC[C@H](C(=N)N)CC1 [compound 20] | – |
| 7.35 | 6.89 | 4.85 | CS(=O)(=O)N[C@H](Cc1ccccc1)C(=O)N1CCC[C@H]1C(=O)NC[C@H]1CC[C@H](N)CC1 [compound 52] | – |
| 7.23 | 7.09 | 5.85 | CS(=O)(=O)N[C@@H](C(=O)N1CCC[C@H]1C(=O)NC[C@H]1CC[C@H](N)CC1)C1CCCCC1 [compound 53] | – |
| 6.64 | – | – | N[C@H]1CC[C@H](CNC(=O)[C@@H]2CCCN2C(=O)[C@H](CCC(=O)O)NS(=O)(=O)c2ccccc2)CC1 [compound 54] | – |
| 7.09 | – | – | CCOC(=O)N[C@H](Cc1ccccc1)C(=O)N1CCC[C@H]1C(=O)NC[C@H]1CC[C@H](N)CC1 [compound 57] | – |
| 7.01 | – | – | N[C@H](Cc1ccccc1)C(=O)N1CCC[C@H]1C(=O)NC[C@H]1CC[C@H](N)CC1 [compound 58] | – |
| 7.06 | – | – | N[C@H]1CC[C@H](CNC(=O)[C@@H]2CCCN2C(=O)[C@H](O)c2ccccc2)CC1 [compound 62] | – |
| 7.09 | 6.25 | 4.70 | CS(=O)(=O)N[C@H](Cc1ccccc1)C(=O)N1CCC[C@H]1C(=O)NC[C@H]1CC[C@H](NC(=N)N)CC1 [compound 67] | – |

The next lines start with the molecule.

| SMILES | pIC50 (bovine thrombin [2]) | pIC50 (bovine thrombin [3]) | pIC50 (bovine trypsin) | stability in the living body [1] |
| --- | --- | --- | --- | --- |
| N=C(N)NCCC[C@@H](C=O)NC(=O)[C@@H]1CCCN1C(=O)[C@H](N)Cc1ccccc1 [D-phenylalanyl-L-prolyl-L-arginal] | – | – | – | fairly unstable |
| COC(=O)c1ccc(CC[C@@H](NS(C)(=O)=O)C(=O)N2CCC[C@H]2C(=O)NCc2ccc(C(=N)N)cc2)cc1 [compound 8] | 6.91 | – | – | – |
| CS(=O)(=O)N[C@H](COc1cccc(C(=O)O)c1)C(=O)N1CCC[C@H]1C(=O)NCc1ccc(C(=N)N)cc1 [compound 9] | 6.96 | – | – | – |
| CS(=O)(=O)N[C@H](COc1ccccc1C(=O)OCc1ccccc1)C(=O)N1CCC[C@H]1C(=O)NCc1ccc(C(=N)N)cc1 [compound 10] | 6.77 | – | – | – |
| CCCCC[C@@H](NS(=O)(=O)CC(=O)O)C(=O)N1CCC[C@H]1C(=O)NCc1ccc(C(=N)N)cc1 [compound 12] | 7.08 | – | – | – |
| N=C(N)c1ccc(CNC(=O)[C@@H]2CCCN2C(=O)CCCc2ccccc2)cc1 [compound 13] | 6.23 | 6.14 | – | – |
| CCOC(=O)N[C@H](CC1CCCCC1)C(=O)N1CCC[C@H]1C(=O)NC[C@H]1CC[C@H](C(=N)N)CC1 [compound 16] | – | 7.68 | 5.77 | – |
| CC(C)OC(=O)N[C@H](CC(C)(C)C)C(=O)N1CCC[C@H]1C(=O)NC[C@H]1CC[C@H](C(=N)N)CC1 [compound 17] | 7.28 | 7.82 | 5.49 | – |
| CC(C)OC(=O)N[C@@H](C(=O)N1CCC[C@H]1C(=O)NC[C@H]1CC[C@H](C(=N)N)CC1)C1CCCCC1 [compound 21] | – | 7.68 | 6.00 | – |
| CCOC(=O)N[C@H](CC(CC)CC)C(=O)N1CCC[C@H]1C(=O)NC[C@H]1CC[C@H](C(=N)N)CC1 [compound 22] | – | 7.85 | 6.03 | – |
| CC(C)(C)C[C@@H](NC(=O)OC(C)(C)C)C(=O)N1CCC[C@H]1C(=O)NC[C@H]1CC[C@H](C(=N)N)CC1 [compound 23] | 7.24 | 7.77 | 5.44 | – |
| NC(=NO)c1ccc(CNC(=O)[C@@H]2CCCN2C(=O)Cc2ccccc2)cc1 [compound 25] | < 3.52 | – | – | – |
| CC(C)OC(=O)N[C@H](CC(C)(C)C)C(=O)N1CCC[C@H]1C(=O)NC[C@H]1CC[C@H](N)CC1 [compound 56] | 7.10 | 6.89 | 4.85 | – |
| N[C@H]1CC[C@H](CNC(=O)[C@@H]2CCCN2C(=O)[C@H](O)C2CCCCC2)CC1 [compound 61] | 7.25 | – | – | – |
| CCOC(=O)N[C@H](CC(C)(C)C)C(=O)N1CCC[C@H]1C(=O)NC[C@H]1CC[C@H](N)CC1 [compound 64] | 6.89 | – | – | – |
